Our source for the aqueous solution stability values is patent CN103910677A, “紫堇定碱衍生物的盐” (Shanghai Yizhi Pharmaceutical Technology Co Ltd, priority 2013, dated 2014).

This data set in a line: Stability in aqueous solution (extent of free base precipitation from an aqueous solution of the test compound). The class given is physicochemical. The conditions noted are these: known temperature and known period (not specified), 富马酸盐.

For `COc1cc2c3c(c1O)-c1c(ccc(OC)c1OC)C[C@@H]3N(C)CC2` [Ⅱˉ表示的富马酸根的式(Ⅲ)化合物, 紫堇定碱富马酸盐], the aqueous solution stability entry was “特别稳定 and 异常的稳定”.
